{"source": "patent US20080081075A1", "about": "“Multifunctional mixed micelle of graft and block copolymers and preparation thereof” (National Tsing Hua University, priority 2006, published 2008)", "key": {"[1]": {"test_system": "HepG2 (human hepatocellular carcinoma) cells", "experiment": "Internalization evaluation by confocal laser scanning microscopy with LysoTracker", "type": "cell-based", "conditions": "Dox ca. 10 μg/mL", "experimental": "Internalization Evaluation. Accumulated Dox in HepG2 cells was localized using a Carl Zeiss LSM5 PASCAL confocal laser scanning microscope (CLSM). The […] cells were seeded on coverslides for 24 h and then treated with free Dox or Dox-loaded mixed micelles. Dox-loaded mixed micelles were washed with PBS twice to remove untrapped Dox before use. The concentration of Dox was ca. 10 μg/mL. After an interval, the cells were washed twice with PBS; then, the LysoTracker was added in a culture medium without FBS. After 30 min of incubation, the cells were washed with PBS and mounted on a slide with 4 wt % paraformaldehyde for CLSM observation. Fluorescence observation was carried out with a confocal microscope at 488 nm for excitation and an LP (long-pass) filter of 590 nm for Dox detection. […]\nConfocal laser scanning microscopy (CLSM) was used to observe the intracellular drug release of mixed micelles. Confocal images were taken to observe the time-dependent fluorescence intensity of LysoTracker and Dox after mixed micelles were incubated with HepG2 (human hepatocellular carcinoma) cells. The red fluorescence from Dox and the green fluorescence from LysoTracker were detected in the intracellular compartment. […] Fluorescence from LysoTracker occurred in both the nucleus and cytoplasm because these are acidified by doxorubicin hydrochloride. […]"}, "HeLa cells": {"test_system": "HeLa cells", "experiment": "Cytotoxicity evaluation, MTT assay", "type": "cell-based", "conditions": "48 h", "procedure": "The cytotoxicity of each sample was determined by measuring the inhibition of cell growth using a tetrazolium dye (MTT) assay. […] HeLa cells (5×10^3 cell/mL) harvested in a logarithmic growth phase were seeded on 96 wells in Dulbecco's modified Eagle's medium (DMEM) with 10% fetal bovine serum (FBS) in a humidified atmosphere of 5% CO2 at 37° C. After the HeLa cells had been incubated in a logarithmic growth phase, samples with various concentrations of Dox were added for 48 h of co-culturing. At the end of the experiment, the MTT assay was conducted and the percentage of cell viability was calculated. Additionally, material cytotoxicities were measured using HeLa cells (5×10^3 cell/mL). The experimental process was identical to that described above.\nHeLa cells (5×10^3 cell/ml) were used to study the cytotoxicity of free Dox and Dox-loaded mixed micelle by measuring the inhibition of cell growth using a tetrazolium dye (MTT) assay.\nThe Dox-loaded multifunctional micelles and free Dox were tested for in vitro cytotoxicity using a tetrazolium dye (MTT) method. The MTT-based cytotoxic activities of the Dox-loaded multifunctional micelles and free DOX were compared after 24 h and 72 h incubation with HeLa cells."}}, "data": [{"smiles": "COc1cccc2c1C(=O)c1c(O)c3c(c(O)c1C2=O)C[C@@](O)(C(=O)CO)C[C@@H]3O[C@H]1C[C@H](N)[C@H](O)[C@H](C)O1", "note": "[free Dox, doxorubicin]", "values": [{"measurement": "localization of Dox fluorescence", "setting": "[1]; 1 h incubation", "result": "concentrated in the nucleus"}, {"measurement": "localization of Dox fluorescence", "setting": "[1]; 8 h incubation", "result": "concentrated in the nucleus"}, {"measurement": "activity compared with Dox-loaded mixed micelles and Dox-loaded Graft I micelles", "setting": "HeLa cells", "result": "more potent activity"}]}]}
